Holding throughout (assay type): functional
Assay [1] concerns Enterococcus faecium. The experiment in a line: In vitro antibacterial activity against vancomycin-resistant Enterococcus faecium 2164 (VRE.3).
Assay [2] deals with Enterococcus faecalis. The experiment in a line: In vitro antibacterial activity against Enterococcus faecalis 29212A (E.f.1).
Assay [3] deals with Enterococcus faecalis. Kind of assay: In vitro antibacterial activity against Enterococcus faecalis EFS008 (E.f.2).
For assay [4], the system named is Enterococcus faecium. The experiment in a line: In vitro antibacterial activity against vancomycin-resistant Enterococcus faecium (VRE.1).
The test system of assay [5] is Enterococcus faecium. Kind of assay: In vitro antibacterial activity against vancomycin-resistant Enterococcus faecium 2006 (VRE.2).
Assay [6] deals with Staphylococcus aureus. The experiment in a line: In vitro antibacterial activity against Staphylococcus aureus 77 (S.a.2).
Assay [7] has as its system Staphylococcus aureus. Kind of assay: In vitro antibacterial activity against Staphylococcus aureus 29213A (S.a.3).
For assay [8], the system named is Staphylococcus aureus. The experiment in a line: In vitro antibacterial activity against Staphylococcus aureus 6538p (S.a.1).
Assay [9] deals with Staphylococcus aureus. Kind of assay: In vitro antibacterial activity against methicillin-resistant Staphylococcus aureus 241 (MRSA).
Assay [10] concerns Staphylococcus epidermidis. Kind of assay: In vitro antibacterial activity against Staphylococcus epidermidis Q004 (S.e.1).
Assay [11] concerns Staphylococcus epidermidis. Kind of assay: In vitro antibacterial activity against Staphylococcus epidermidisMR 887E (S. e. MR).

Structures are written as SMILES. Converted amounts (≈) assume the structure as drawn.

We go through eleven compounds from ChEMBL document CHEMBL1146636, “Synthesis and in vitro activity of novel isoxazolyl tetrahydropyridinyl oxazolidinone antibacterial agents” (2003).

Take `CC(=O)NC[C@H]1CN(c2ccc(N3CC=C(c4oncc4C)CC3)c(F)c2)C(=O)O1`: the MIC in assay [1] came to 2 µg/mL (≈ 4.83 µM); in assay [2] it was 4 µg/mL (≈ 9.65 µM); in assay [3], 4 µg/mL (≈ 9.65 µM); in [4] it was 2 µg/mL (≈ 4.83 µM); in assay [5], 2 µg/mL (≈ 4.83 µM); in [6] it was 1 µg/mL (≈ 2.41 µM). Besides, the MIC was determined as 4 µg/mL (≈ 9.65 µM) in assay [7]; 2 µg/mL (≈ 4.83 µM) in assay [8]; 2 µg/mL (≈ 4.83 µM) in assay [9]; 1 µg/mL (≈ 2.41 µM) in [10]; 2 µg/mL (≈ 4.83 µM) in assay [11].

For the compound `CC(=O)NC[C@H]1CN(c2ccc(N3CC=C(c4oncc4C(=O)N(C)C)CC3)c(F)c2)C(=O)O1`, the MIC in assay [1], in assay [2], in assay [3], in assay [4], in assay [5] and in assay [6] was 8 µg/mL (≈ 17 µM) in each case. The MIC in assay [7] was determined as 4 µg/mL (≈ 8.48 µM); in assay [8], 4 µg/mL (≈ 8.48 µM); in assay [9], 8 µg/mL (≈ 17 µM); in assay [10] it was 2 µg/mL (≈ 4.24 µM); in [11], 8 µg/mL (≈ 17 µM).

Regarding `CC(=O)NC[C@H]1CN(c2ccc(N3CC=C(c4oncc4C(N)=O)CC3)c(F)c2)C(=O)O1`, the MIC in assay [1] was found to be 1 µg/mL (≈ 2.26 µM); in assay [2] it was 1 µg/mL (≈ 2.26 µM); in assay [3], 1 µg/mL (≈ 2.26 µM); in assay [4], 1 µg/mL (≈ 2.26 µM); in [5] it was 1 µg/mL (≈ 2.26 µM); in assay [6], 0.5 µg/mL (≈ 1.13 µM). Moreover, the MIC in [7] came out at 0.5 µg/mL (≈ 1.13 µM); in [8] it was 0.5 µg/mL (≈ 1.13 µM); in assay [9], 0.5 µg/mL (≈ 1.13 µM); in assay [10], 0.5 µg/mL (≈ 1.13 µM); in assay [11], 1 µg/mL (≈ 2.26 µM).

As for `CCOC(=O)c1cnoc1C1=CCN(c2ccc(N3C[C@H](CNC(C)=O)OC3=O)cc2F)CC1`, the MIC turned out to be 8 µg/mL (≈ 16.9 µM) in assay [1]; 16 µg/mL (≈ 33.9 µM) in [2]; 8 µg/mL (≈ 16.9 µM) in assay [3]; 16 µg/mL (≈ 33.9 µM) in assay [4]; 8 µg/mL (≈ 16.9 µM) in assay [5]; 4 µg/mL (≈ 8.47 µM) in [6]. Moreover, the minimum inhibitory concentration (MIC) in assay [7] came to 4 µg/mL (≈ 8.47 µM); in assay [8] it was 8 µg/mL (≈ 16.9 µM); in [9], 4 µg/mL (≈ 8.47 µM); in assay [10], 4 µg/mL (≈ 8.47 µM); in [11], 16 µg/mL (≈ 33.9 µM).

Regarding `CC(=O)NC[C@H]1CN(c2ccc(N3CC=C(c4conc4C#N)CC3)c(F)c2)C(=O)O1`, the MIC in [1] stood at 2 µg/mL (≈ 4.7 µM); in assay [2], 2 µg/mL (≈ 4.7 µM); in assay [3], 2 µg/mL (≈ 4.7 µM); in [4], 2 µg/mL (≈ 4.7 µM); in [5], 2 µg/mL (≈ 4.7 µM); in assay [6], 1 µg/mL (≈ 2.35 µM). Further, the MIC in assay [7] is 2 µg/mL (≈ 4.7 µM); in assay [8], 1 µg/mL (≈ 2.35 µM); in [9], 1 µg/mL (≈ 2.35 µM); in assay [10], 0.5 µg/mL (≈ 1.18 µM); in assay [11] it was 4 µg/mL (≈ 9.4 µM).

Turning to `CC(=O)NC[C@H]1CN(c2ccc(N3CC=C(c4oncc4C(F)(F)F)CC3)c(F)c2)C(=O)O1`, the minimum inhibitory concentration (MIC) in [1], in assay [2], in assay [3], in assay [4], in assay [5] and in [6] was above 64 µg/mL throughout. For the same compound, the MIC in [7], in assay [8], in [10] and in assay [11] was above 64 µg/mL in each case.

`CN[C@H](CC(C)C)C(=O)N[C@H]1C(=O)N[C@@H](CC(N)=O)C(=O)N[C@H]2C(=O)N[C@H]3C(=O)N[C@H](C(=O)N[C@H](C(=O)O)c4cc(O)cc(O)c4-c4cc3ccc4O)[C@H](O)c3ccc(c(Cl)c3)Oc3cc2cc(c3O[C@@H]2O[C@H](CO)[C@@H](O)[C@H](O)[C@H]2O[C@H]2C[C@](C)(N)[C@H](O)[C@H](C)O2)Oc2ccc(cc2Cl)[C@H]1O` [VANCOMYCIN]: the MIC in [1] was above 64 µg/mL; in [4], 64 µg/mL (≈ 44.2 µM); in assay [5], above 64 µg/mL.

Consider `CC(=O)NC[C@H]1CN(c2ccc(N3CCOCC3)c(F)c2)C(=O)O1` [LINEZOLID], for which the MIC turned out to be 2 µg/mL (≈ 5.93 µM) in [1]; 2 µg/mL (≈ 5.93 µM) in assay [4]; 2 µg/mL (≈ 5.93 µM) in assay [5]; 0.5 µg/mL (≈ 1.48 µM) in [6]; 0.5 µg/mL (≈ 1.48 µM) in assay [8]; 0.5 µg/mL (≈ 1.48 µM) in assay [9]. Moreover, the MIC stood at 0.5 µg/mL (≈ 1.48 µM) in assay [10] and 1 µg/mL (≈ 2.96 µM) in [11].

In the case of `CC(=O)NC[C@H]1CN(c2ccc(N3CC=C(c4oncc4Cl)CC3)c(F)c2)C(=O)O1`, the MIC in assay [1] came to 32 µg/mL (≈ 73.6 µM); in [2], 64 µg/mL (≈ 147 µM); in assay [3], 64 µg/mL (≈ 147 µM); in [4], 32 µg/mL (≈ 73.6 µM); in [5] it was 32 µg/mL (≈ 73.6 µM); in [6] it was 8 µg/mL (≈ 18.4 µM). In addition, the MIC in assay [7] was found to be 32 µg/mL (≈ 73.6 µM); in assay [8], 8 µg/mL (≈ 18.4 µM); in assay [9], 4 µg/mL (≈ 9.2 µM); in assay [10], 8 µg/mL (≈ 18.4 µM); in assay [11] it was 16 µg/mL (≈ 36.8 µM).

For the compound `CC(=O)NC[C@H]1CN(c2ccc(N3CC=C(c4conc4Cl)CC3)c(F)c2)C(=O)O1`, the MIC in assay [1] stood at 8 µg/mL (≈ 18.4 µM); in assay [2] it was 8 µg/mL (≈ 18.4 µM); in [3], 8 µg/mL (≈ 18.4 µM); in assay [4], 8 µg/mL (≈ 18.4 µM); in assay [5] it was 8 µg/mL (≈ 18.4 µM); in assay [6], 2 µg/mL (≈ 4.6 µM). Moreover, the MIC is 8 µg/mL (≈ 18.4 µM) in assay [7]; 2 µg/mL (≈ 4.6 µM) in [8]; 2 µg/mL (≈ 4.6 µM) in assay [9]; 2 µg/mL (≈ 4.6 µM) in assay [10]; 8 µg/mL (≈ 18.4 µM) in assay [11].

As for `CC(=O)NC[C@H]1CN(c2ccc(N3CC=C(c4oncc4C#N)CC3)c(F)c2)C(=O)O1`, the MIC in [1] stood at 4 µg/mL (≈ 9.4 µM); in [2] it was 4 µg/mL (≈ 9.4 µM); in [3] it was 4 µg/mL (≈ 9.4 µM); in assay [4], 4 µg/mL (≈ 9.4 µM); in [5], 4 µg/mL (≈ 9.4 µM); in [6], 1 µg/mL (≈ 2.35 µM). The MIC came to 4 µg/mL (≈ 9.4 µM) in assay [7]; 2 µg/mL (≈ 4.7 µM) in assay [8]; 2 µg/mL (≈ 4.7 µM) in assay [9]; 1 µg/mL (≈ 2.35 µM) in assay [10]; 4 µg/mL (≈ 9.4 µM) in [11].

As a reminder, the MIC is the lowest concentration that inhibits growth of the organism. The low end stands for a more susceptible organism, the high end for a less susceptible organism.
